Assay results from PubChem BioAssay (NCI).
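The compound was tested at five concentrations on cells cultured in 96-well plates, with a 48-hour exposure period. TGI: total growth inhibition.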

Columns and labels:
Experiment in all cases: DTP human tumour cell line panel, 48 h
[1] = system: DLD-1 colon
[2] = system: DMS 114 small cell lung
[3] = system: DMS 273 small cell lung
[4] = system: HCC-2998 colon
[5] = system: HOP-18 NSCLC
[6] = system: KM20L2 colon
[7] = system: LXFL 529 NSCLC
[8] = system: M14 melanoma
[9] = system: M19-MEL melanoma
[10] = system: NCI-H226 lung
[11] = system: SK-MEL-28 melanoma
[12] = system: SNB-78 CNS
[13] = system: XF 498 CNS
[14] = system: RXF-631 renal
[15] = system: MCF7 breast

CCCCCCCC/C=C\CCCCCCCC(=O)NCCN(CCN)C(=O)CCCCCCC/C=C\CCCCCCCC
TGI [1]: > 100 µM
TGI [2]: > 100 µM
TGI [3]: > 100 µM
TGI [4]: > 100 µM
TGI [5]: > 100 µM
TGI [6]: > 100 µM
TGI [7]: > 100 µM
TGI [8]: > 100 µM
TGI [9]: > 100 µM
TGI [10]: > 100 µM
TGI [11]: > 100 µM

CC(=O)O[C@H]1C(=O)[C@@]2(C)C(C(OC(=O)c3ccccc3)[C@]3(O)CC(OC(=O)C(O)C(NC(=O)c4ccc(C)cc4)c4ccccc4)C(C)=C1C3(C)C)[C@]1(OC(C)=O)CO[C@@H]1C[C@@H]2O (some centres not stated)
TGI [1]: 15.4 µM
TGI [2]: < 0.0025 µM
TGI [3]: 3.25 µM
TGI [7]: > 25 µM
TGI [9]: 4.23 µM
TGI [12]: > 25 µM
TGI [13]: 0.0201 µM

COC(=O)[C@]1(C)CCC[C@@]2(C)C1CCC1=CC3(C(C)C)CCC12OO3 (some centres not stated)
TGI [1]: > 100 µM
TGI [4]: > 100 µM
TGI [6]: > 100 µM
TGI [7]: > 100 µM
TGI [8]: > 100 µM
TGI [9]: > 100 µM
TGI [10]: > 100 µM
TGI [14]: > 100 µM
TGI [12]: > 100 µM

O=C(O)CC/C(=N\Nc1nsc2ccccc12)c1ccc(Cl)cc1
TGI [2]: > 100 µM
TGI [3]: 41.2 µM
TGI [4]: 36.8 µM
TGI [5]: 52 µM
TGI [6]: > 100 µM
TGI [7]: 41.1 µM
TGI [8]: > 65.8 µM
TGI [9]: > 100 µM
TGI [15]: > 100 µM
TGI [10]: > 100 µM
TGI [11]: 37.4 µM
TGI [12]: > 100 µM

N#Cc1cc([N+](=O)[O-])ccc1NC(=O)C(=O)C(C(=O)/C=C/c1ccccc1)C1OC(=O)c2ccccc21 (configuration not stated)
TGI [1]: > 100 µM
TGI [2]: > 100 µM
TGI [4]: > 100 µM
TGI [5]: > 100 µM
TGI [6]: > 100 µM
TGI [7]: > 100 µM
TGI [8]: > 100 µM
TGI [9]: > 100 µM
TGI [10]: > 100 µM
TGI [14]: > 100 µM
TGI [11]: > 100 µM
TGI [12]: > 100 µM
TGI [13]: > 100 µM

COc1ccc([C@H]2CC(=O)NCCCCN2)cc1
TGI [1]: > 100 µM
TGI [2]: > 100 µM
TGI [3]: > 100 µM
TGI [5]: > 100 µM
TGI [6]: > 100 µM
TGI [7]: > 100 µM
TGI [8]: > 100 µM
TGI [9]: > 100 µM
TGI [10]: > 100 µM
TGI [11]: > 100 µM
TGI [12]: > 100 µM
TGI [13]: > 100 µM

O=C(Nc1c(O)[nH]c(=S)[nH]c1=O)c1ccc2ccccc2n1
TGI [1]: > 100 µM
TGI [2]: > 100 µM
TGI [5]: > 100 µM
TGI [6]: > 100 µM
TGI [7]: > 100 µM
TGI [8]: > 100 µM
TGI [9]: > 100 µM
TGI [10]: > 100 µM
TGI [14]: > 100 µM
TGI [11]: > 100 µM
TGI [12]: > 100 µM

COc1ccc2c(c1)N=C1CSC(c3cc([N+](=O)[O-])ccc3Cl)N1C2 (configuration not stated)
TGI [4]: 33 µM
TGI [8]: 86.8 µM
TGI [15]: 42.6 µM
TGI [10]: > 100 µM
TGI [11]: 83.7 µM

CC(C)OP(=O)(OC(C)C)C(=Nc1ccccc1)NNc1ccc([N+](=O)[O-])cc1
TGI [1]: > 100 µM
TGI [2]: 69.5 µM
TGI [3]: 59 µM
TGI [4]: > 100 µM
TGI [6]: > 100 µM
TGI [7]: > 100 µM
TGI [8]: 41.4 µM
TGI [9]: > 100 µM
TGI [10]: 84.9 µM
TGI [11]: 89.5 µM
TGI [12]: 43.1 µM
TGI [13]: 61 µM
